The values below come from patent US8952221B2, “Enzymes that synthesize zingiberene” (Board of Trustees of Michigan State University, priority 2011, dated 2015).

The subject of one assay is LA2167-ZIS zingiberene synthase. In words: Recombinant LA2167-ZIS enzyme activity assay, soluble protein from E. coli BL21 plus isoprenoid diphosphate substrate, headspace SPME GC-MS. The note with it: 10 μM substrate, 2 μg soluble protein, 30 min at 30° C., GC-MS extracted ion 93. The assay is classed as biochemical, Solanum habrochaites. How it is done:
The synthetic gene was excised from the pUC57 cloning vector by digestion with BamHI and SalI and ligated into the pHIS8 vector previously linearized by digestion with the same enzymes. Recombinant clones were transformed into E. coli BL21 cells. A 5-mL log-phase culture of E. coli BL21 cells containing the expression vector was induced by addition of IPTG to a final concentration of 0.1 mM. The induced cells were incubated with agitation at 25° C. for 16 h, and then harvested by centrifugation at 10,000 g for 15 min. The cell pellet was resuspended in 1 mL extraction buffer (50 mM HEPES pH 8, 5% glycerol, 100 mM KCl, 7.5 mM MgCl2 containing 1 mM dithiothreitol (DTT)) prior to sonication. Soluble proteins were harvested after centrifugation at 10,000 g for 20 min. The supernatant was used for subsequent enzyme assays. Two micrograms of soluble protein were mixed with 10 μM of substrate (GPP, NPP, EE-FPP or 2Z, 6Z-FPP (Echelon Biosciences Inc., Salt Lake City, Utah)) in a 2-mL glass vial. Reactions were allowed to proceed for 30 min at 30° C., and the glass vial headspace was collected with a 65 μm polydimethylsiloxane-divinylbenzene solid-phase microextraction fiber (Supelco, Bellefonte, Pa.). After 5 min of exposure at 42° C., the SPME fiber was retracted and transferred to the GC injector port for desorption at 200° C. onto the GC column for 3 min. The terpenes were separated on a DB5 column (10 m length, inner diameter and 0.25 um). The GC-MS analysis was performed as described previously […] et al. (Plant Physiol 153, 1212-1223 (2010)).
`CC(C)=CCC/C(C)=C\CC/C(C)=C\COP(=O)(O)OP(=O)(O)O` [2Z,6Z-farnesyl diphosphate, (2Z,6Z)-farnesyl diphosphate, reference compound]: the “Products synthesized by LA2167-ZIS from the supplied substrate” value (from here on “Products synthesized by LA2167-ZIS”) is listed as “zingiberene peak at about 4.65 is only observed”.

In the case of `CC(C)=CCC/C(C)=C/COP(=O)(O)OP(=O)(O)O` [geranyl diphosphate, reference compound], the “Products synthesized by LA2167-ZIS” value is listed as “failed to synthesize any products”. Consider `CC(C)=CCC/C(C)=C\COP(=O)(O)OP(=O)(O)O` [neryl diphosphate, reference compound], for which the “Products synthesized by LA2167-ZIS” value is reported as “failed to synthesize any products”.

The same assay, now with this note: substrate 2Z,6Z-Farnesyl diphosphate; SEQ ID NO:3 in pHIS8, E. coli BL21 DE3; GC-MS.
As to `CC(C)=CCCC(C)c1ccc(C)cc1` (stereo not drawn) [AR-curcumene], the “Peak Area % of products synthesized by recombinant LA2167-ZIS” value (shortened to “Peak Area % of products synthesized”) is given as 0.986%. Still for that read-out and setting: to `C=C(CCC=C(C)C)[C@@H]1CC=C(C)CC1` [Bisabolene beta] belongs 0.107%; to `C=C(C)C(CO)C/C=C(/C)CCC=C(C)C` (stereo not drawn) [Sesquilavandulol <Z>], 0.228%; to `C=C1C=CC(C(C)CCC=C(C)C)CC1` (stereo not drawn) [Sesquiphellandrene beta], 0.567%. As to bergamotene, the “Peak Area % of products synthesized” value is 0.273%. As to zingiberene, the “Peak Area % of products synthesized” value is 97.839%.
